Measured values as given in patent US20220241249A1, “PHARMACEUTICAL COMPOSITION AND KIT CONTAINING NOVEL PENAM DERIVATIVE OR SALT THEREOF AND ONE OR MORE COMPOUNDS SELECTED FROM beta-LACTAMASE INHIBITORY COMPOUND AND ANTIBACTERIAL COMPOUND OR SALTS THEREOF” (priority 2019, published 2022).
Read-outs that look alike come from different tables or passages of the source. One block for each compound: values may come before it.

Tests used:
Format in all cases: cell-based
[1] = test system: Carbapenem-resistant Acinetobacter A515 strain; assay: MIC of test compound combined with a plurality of β-lactamase inhibitors; conditions: for antibacterial activity in combination with two β-lactamase inhibitors: against all the bacterial strains (Acinetobacter A514 and A515), with SBT and AVI
Experimental: (§1) By using a broth microdilution method, the combinational effect of a test compound and a plurality of β-lactamase inhibitors was evaluated.
(§2) The evaluation test for antibacterial activity was performed in the same manner as in Test Example 1.
(§3) As bacterial strains, Carbapenem-resistant Acinetobacter A514 and A515 strains were used.

[2] = test system: Carbapenem-resistant Acinetobacter A514 strain; assay: as above
Experimental: as §1, §2, §3

[3] = test system: Klebsiella pneumoniae Y-1133 strain producing NDM-1, OXA-48, and CTX-M-15 (strain C); assay: MIC of test compound alone or with β-lactamase inhibitor at 4 μg/mL
Experimental: (§4) By using a broth microdilution method, the combinational effect of a test compound and a β-lactamase inhibitor was evaluated.
as §2
Klebsiella pneumoniae Y-1133 strain producing NDM-1, OXA-48, and CTX-M-15 (hereinafter, called strain C),
(§5) An antibacterial activity evaluation test was performed in the same manner as in Test Example 6.
(§6) As the bacterial strain, the strains B, C, and D producing β-lactamase and a Klebsiella pneumoniae Y-1069 strain (hereinafter, called strain F) producing OXA-48 and CTX-M-15 were used.

[4] = test system: Pseudomonas aeruginosa ATCC27853 strain (Pseudomonas aeruginosa A); assay: Combinational effect of test compound and antibacterial compound, checkerboard FIC index; conditions: for FIC index: Pseudomonas aeruginosa A, checkerboard; for combinational effect with other antibacterial compounds: main strains of Gram-negative bacteria, summary of Tables 40 to 42
Experimental: (§7) By using a broth microdilution method, the combinational effect of antibacterial activity of a test compound and an antibacterial compound was evaluated.
(§8) As bacterial strains, an Escherichia coli ATCC25922 strain (hereinafter, called Escherichia coli A), a Klebsiella pneumoniae ATCC13883 strain (hereinafter, called Klebsiella pneumoniae A), and a Pseudomonas aeruginosa ATCC27853 strain (hereinafter, called Pseudomonas aeruginosa A) were used.
(§9) The minimum inhibitory concentration (hereinafter, called MIC) was measured according to the Clinical and Laboratory Standards Institute (CLSI) standard method by using the following broth microdilution method.
(§10) The bacterial cells that had been cultured overnight on a Mueller Hinton agar medium were scraped off, suspended at a density equivalent to 0.5 McFarland standard. The obtained suspension was diluted at 10 fold, thereby obtaining an inoculum. Cation-adjusted Mueller Hinton media containing only a test compound, containing only an antibacterial compound, or containing a test compound and an antibacterial compound were inoculated with 0.005 mL of the inoculum, and the cells were cultured at 35° C. for 18 to 20 hours. The minimum drug concentration at which the growth of bacteria was not visually observed was defined as MIC (μg/mL).
(§11) The FIC Index is the minimum value calculated by the following formula.
(§12) FIC Index=(MIC value obtained in a case where test compound is used in combination/MIC value obtained in a case where test compound is used alone)+(MIC value obtained in a case where antibacterial compound is used in combination/MIC value obtained in a case where antibacterial compound is used alone)
(§13) In a case where the FIC Index was 0.5 or less, it was decided that the use of two drugs in combination brings about a synergistic effect.
(§14) In a case where the FIC Index was more than 0.5 and 1 or less, it was decided that the use of two drugs in combination brings about an additive effect. (Diagnostic Microbiology and Infectious Disease, 2004, Vol. 49, p. 197)

[5] = test system: Escherichia coli ATCC25922 strain (Escherichia coli A); assay: as above
Experimental: as §7, §8, §9, §10, §11, §12, §13, §14

[6] = test system: Klebsiella pneumoniae ATCC13883 strain (Klebsiella pneumoniae A); assay: as above
Experimental: as §7, §8, §9, §10, §11, §12, §13, §14

[7] = test system: Escherichia coli TK-1747 strain producing CTX-M-15 (strain A); assay: MIC of test compound alone or with β-lactamase inhibitor at 4 μg/mL
Experimental: as §4, §2
Escherichia coli TK-1747 strain producing CTX-M-15 (hereinafter, called strain A),

[8] = test system: Klebsiella pneumoniae Y-1020 strain producing KPC-3 and SHV-12 (strain B); assay: as above; conditions: for MIC: Strain B; for antibacterial activity in combination with a β-lactamase inhibitor versus without: for all the bacterial strains (strains A to E), summary of Tables 43 to 47
Experimental: as §4, §2

[9] = test system: Escherichia coli TK-3113 strain producing IMP-8 (strain D); assay: as above
Experimental: as §4, §2
Escherichia coli TK-3113 strain producing IMP-8 (hereinafter, called strain D),
as §5, §6

[10] = test system: Escherichia coli TK-1765 strain producing CMY-2 (strain E); assay: as above
Experimental: as §4, §2
Escherichia coli TK-1765 strain producing CMY-2 (hereinafter, called strain E)

[11] = Table 49, against the Carbapenem-resistant Acinetobacter A515 strain, read-out: MIC
[12] = Table 48, against the Carbapenem-resistant Acinetobacter A514 and A515 strains (so in the source), read-out: MIC
[13] = test compound alone (β-lactamase inhibitor N/A)

- MIC [1, 11]: > 32 µg/mL
- MIC [2, 12]: > 32 µg/mL
Compound: NC(=O)[C@@H]1CC[C@@H]2CN1C(=O)N2OS(=O)(=O)O [AVI, avibactam sodium]

Compound: CC(C)(O/N=C(\C(=O)N[C@@H]1C(=O)N2C[C@@](C(=O)O)(N3CCN(NC(=O)C(=O)c4ccc(O)c(O)c4Cl)C3=O)S[C@H]12)c1csc(N)n1)C(=O)O [Compound A]
- MIC ([3]; AVI added at 4 μg/mL): 0.12 µg/mL
- MIC ([3]; NAC added at 4 μg/mL): 0.03 µg/mL
- MIC ([3]; ZID added at 4 μg/mL): <0.015 µg/mL
- MIC [3, 13]: 0.5 µg/mL
- antibacterial activity in combination with two β-lactamase inhibitors [1]: High antibacterial activity
- FIC index ([4]; in combination with AMK): 0.5
- FIC index ([4]; in combination with CAZ): 0.5625
- FIC index ([4]; in combination with IPM): 0.252
- FIC index ([4]; in combination with LVFX): 0.5625
- FIC index ([4]; in combination with PIPC): 0.5
- FIC index ([4]; in combination with PL-B): 0.625
- FIC index ([4]; in combination with RFP): 0.281
- FIC index ([4]; in combination with TC): 0.375
- combinational effect with other antibacterial compounds [4]: additive or synergistic effect
- FIC index ([5]; in combination with AMK): 0.5625
- FIC index ([5]; in combination with CAZ): 0.625
- FIC index ([5]; in combination with IPM): 0.5156
- FIC index ([5]; in combination with LVFX): 0.75
- FIC index ([5]; in combination with MPC): 0.5078
- FIC index ([5]; in combination with PIPC): 0.5625
- FIC index ([5]; in combination with RFP): 0.625
- FIC index ([5]; in combination with TC): 0.75
- FIC index ([5]; in combination with TMP): 0.625
- FIC index ([6]; in combination with CAZ): 0.625
- FIC index ([6]; in combination with IPM): 0.375
- FIC index ([6]; in combination with LVFX): 0.75
- FIC index ([6]; in combination with MPC): <0.5
- FIC index ([6]; in combination with PIPC): 0.375
- FIC index ([6]; in combination with PL-B): 0.125
- FIC index ([6]; in combination with RFP): 0.502
- FIC index ([6]; in combination with TMP): 0.375
- MIC ([7]; AVI added at 4 μg/mL): <0.015 µg/mL
- MIC ([7]; CVA added at 4 μg/mL): <0.015 µg/mL
- MIC ([7]; NAC added at 4 μg/mL): <0.015 µg/mL
- MIC ([7]; SBT added at 4 μg/mL): <0.015 µg/mL
- MIC ([7]; TAZ added at 4 μg/mL): <0.015 µg/mL
- MIC ([7]; VAB added at 4 μg/mL): 0.06 µg/mL
- MIC ([7]; ZID added at 4 μg/mL): <0.015 µg/mL
- MIC [7, 13]: 0.12 µg/mL
- MIC ([8]; AVI added at 4 μg/mL): 0.25 µg/mL
- MIC ([8]; NAC added at 4 μg/mL): <0.015 µg/mL
- MIC ([8]; VAB added at 4 μg/mL): 1 µg/mL
- MIC ([8]; ZID added at 4 μg/mL): <0.015 µg/mL
- MIC [8, 13]: 2 µg/mL
- antibacterial activity in combination with a β-lactamase inhibitor versus without [8]: higher antibacterial activity
- MIC ([9]; NAC added at 4 μg/mL): 0.06 µg/mL
- MIC ([9]; ZID added at 4 μg/mL): <0.015 µg/mL
- MIC [9, 13]: 0.5 µg/mL
- MIC [10, 13]: 1 µg/mL
- MIC ([10]; with AVI at 4 μg/mL): 0.06 µg/mL
- MIC ([10]; with SBT at 4 μg/mL): 0.5 µg/mL
- MIC ([10]; with TAZ at 4 μg/mL): 0.25 µg/mL
- MIC ([10]; with VAB at 4 μg/mL): 0.12 µg/mL

Compound: Nc1nc(/C(=N/OC2(C(=O)O)CCC2)C(=O)N[C@@H]2C(=O)N3C[C@@](C(=O)O)(N4CCN(NC(=O)C(=O)c5ccc(O)c(O)c5Cl)C4=O)S[C@H]23)cs1 [Compound B]
- MIC ([3]; AVI added at 4 μg/mL): 0.12 µg/mL
- MIC ([3]; NAC added at 4 μg/mL): <0.015 µg/mL
- MIC ([3]; ZID added at 4 μg/mL): <0.015 µg/mL
- MIC [3, 13]: 1 µg/mL
- antibacterial activity in combination with two β-lactamase inhibitors [1]: High antibacterial activity
- FIC index ([4]; in combination with AMK): 0.375
- FIC index ([4]; in combination with CAZ): 0.563
- FIC index ([4]; in combination with IPM): 0.5
- FIC index ([4]; in combination with LVFX): 0.625
- FIC index ([4]; in combination with PIPC): 0.375
- FIC index ([4]; in combination with PL-B): 0.531
- FIC index ([4]; in combination with RFP): 0.313
- FIC index ([4]; in combination with TMP): 0.502
- combinational effect with other antibacterial compounds [4]: additive or synergistic effect
- FIC index ([5]; in combination with CAZ): 0.625
- FIC index ([5]; in combination with MPC): 0.508
- FIC index ([5]; in combination with PIPC): 0.53
- FIC index ([5]; in combination with RFP): 0.531
- FIC index ([5]; in combination with TMP): 0.531
- FIC index ([6]; in combination with AMK): 0.75
- FIC index ([6]; in combination with CAZ): 0.625
- FIC index ([6]; in combination with IPM): 0.375
- FIC index ([6]; in combination with LVFX): 0.563
- FIC index ([6]; in combination with MPC): <0.375
- FIC index ([6]; in combination with PIPC): <0.5
- FIC index ([6]; in combination with PL-B): 0.156
- FIC index ([6]; in combination with RFP): 0.281
- FIC index ([6]; in combination with TMP): 0.375
- MIC ([8]; AVI added at 4 μg/mL): 0.25 µg/mL
- MIC ([8]; NAC added at 4 μg/mL): <0.015 µg/mL
- MIC ([8]; VAB added at 4 μg/mL): <0.015 µg/mL
- MIC ([8]; ZID added at 4 μg/mL): <0.015 µg/mL
- MIC [8, 13]: 2 µg/mL
- antibacterial activity in combination with a β-lactamase inhibitor versus without [8]: higher antibacterial activity
- MIC ([9]; AVI added at 4 μg/mL): 0.25 µg/mL
- MIC ([9]; NAC added at 4 μg/mL): <0.015 µg/mL
- MIC ([9]; ZID added at 4 μg/mL): <0.015 µg/mL
- MIC [9, 13]: 0.5 µg/mL
- MIC [10, 13]: 1 µg/mL
- MIC ([10]; with AVI at 4 μg/mL): 0.03 µg/mL
- MIC ([10]; with SBT at 4 μg/mL): 0.5 µg/mL
- MIC ([10]; with TAZ at 4 μg/mL): 0.12 µg/mL
- MIC ([10]; with VAB at 4 μg/mL): 0.03 µg/mL

Compound: C[C@@H](O)[C@H]1C(=O)N2C(C(=O)O)=C(S[C@@H]3CN[C@H](C(=O)N(C)C)C3)[C@H](C)[C@H]12 [MEPM, meropenem hydrate, reference compound]
- MIC ([3]; Klebsiella pneumoniae, test compound alone (β-lactamase inhibitor N/A)): > 128 µg/mL
- MIC [1, 11]: > 32 µg/mL
- MIC [2, 12]: > 32 µg/mL
- MIC ([8]; Klebsiella pneumoniae, test compound alone (β-lactamase inhibitor N/A), read-out: MIC): 32 µg/mL

Compound: CC1(C)[C@H](C(=O)O)N2C(=O)C[C@H]2S1(=O)=O [SBT, sulbactam sodium]
- MIC ([1]; Acinetobacter): > 32 µg/mL
- MIC ([2]; Acinetobacter): > 32 µg/mL
